Test results reported in ChEMBL document CHEMBL5465560, “Selectivity Literature for EUbOPEN Chemogenomic Library” (2024).
Blank lines part the entries; values can stand above or below the compound they belong to.

Key:
[1] = target: T1, Ephrin type-A receptor 1 (Homo sapiens) (UniProt P21709); conditions: at 10 µM
T1 sequence (whole entry): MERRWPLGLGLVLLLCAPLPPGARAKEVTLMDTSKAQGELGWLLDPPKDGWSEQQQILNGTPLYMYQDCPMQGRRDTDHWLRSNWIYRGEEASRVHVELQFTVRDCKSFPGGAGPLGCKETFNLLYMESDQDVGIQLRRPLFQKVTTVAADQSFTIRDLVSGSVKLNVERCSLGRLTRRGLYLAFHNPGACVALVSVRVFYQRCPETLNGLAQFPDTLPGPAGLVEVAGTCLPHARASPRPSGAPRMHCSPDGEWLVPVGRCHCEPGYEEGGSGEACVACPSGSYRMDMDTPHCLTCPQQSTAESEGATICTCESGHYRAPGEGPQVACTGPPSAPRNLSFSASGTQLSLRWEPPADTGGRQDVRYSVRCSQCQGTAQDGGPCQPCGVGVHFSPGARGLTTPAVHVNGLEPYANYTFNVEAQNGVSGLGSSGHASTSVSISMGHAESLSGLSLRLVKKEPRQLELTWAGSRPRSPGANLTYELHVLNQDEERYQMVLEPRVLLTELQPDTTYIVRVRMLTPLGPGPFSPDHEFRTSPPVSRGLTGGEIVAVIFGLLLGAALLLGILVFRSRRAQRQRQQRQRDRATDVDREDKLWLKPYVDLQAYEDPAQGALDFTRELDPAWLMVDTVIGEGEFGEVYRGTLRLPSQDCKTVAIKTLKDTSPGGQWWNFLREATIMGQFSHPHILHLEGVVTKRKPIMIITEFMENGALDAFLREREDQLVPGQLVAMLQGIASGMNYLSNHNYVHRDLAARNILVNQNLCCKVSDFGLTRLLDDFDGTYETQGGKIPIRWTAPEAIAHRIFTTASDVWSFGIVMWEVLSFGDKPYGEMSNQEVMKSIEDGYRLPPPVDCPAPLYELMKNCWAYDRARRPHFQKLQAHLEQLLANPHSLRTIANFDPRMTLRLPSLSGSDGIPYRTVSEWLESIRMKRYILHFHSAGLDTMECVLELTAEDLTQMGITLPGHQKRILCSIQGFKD

[2] = target: Cyclin-dependent kinase 14 (Homo sapiens) (UniProt O94921); conditions: at 10 µM
[3] = target: Mitogen-activated protein kinase kinase kinase 1 (Homo sapiens, UniProt Q13233); assay: Selectivity interaction (ActivX KiNativ screen (kinase selectivity in THP-1 cell lysates)) EUB0000639a MAP3K1; type: subcellular; conditions: lysate
[4] = target: T2, Beta-adrenergic receptor kinase 1 (Homo sapiens) (UniProt P25098); assay: Selectivity interaction (Kinase panel (Z-LYTE Assay)) EUB0001632a ADRBK1; conditions: at 10 µM
T2 sequence (whole entry): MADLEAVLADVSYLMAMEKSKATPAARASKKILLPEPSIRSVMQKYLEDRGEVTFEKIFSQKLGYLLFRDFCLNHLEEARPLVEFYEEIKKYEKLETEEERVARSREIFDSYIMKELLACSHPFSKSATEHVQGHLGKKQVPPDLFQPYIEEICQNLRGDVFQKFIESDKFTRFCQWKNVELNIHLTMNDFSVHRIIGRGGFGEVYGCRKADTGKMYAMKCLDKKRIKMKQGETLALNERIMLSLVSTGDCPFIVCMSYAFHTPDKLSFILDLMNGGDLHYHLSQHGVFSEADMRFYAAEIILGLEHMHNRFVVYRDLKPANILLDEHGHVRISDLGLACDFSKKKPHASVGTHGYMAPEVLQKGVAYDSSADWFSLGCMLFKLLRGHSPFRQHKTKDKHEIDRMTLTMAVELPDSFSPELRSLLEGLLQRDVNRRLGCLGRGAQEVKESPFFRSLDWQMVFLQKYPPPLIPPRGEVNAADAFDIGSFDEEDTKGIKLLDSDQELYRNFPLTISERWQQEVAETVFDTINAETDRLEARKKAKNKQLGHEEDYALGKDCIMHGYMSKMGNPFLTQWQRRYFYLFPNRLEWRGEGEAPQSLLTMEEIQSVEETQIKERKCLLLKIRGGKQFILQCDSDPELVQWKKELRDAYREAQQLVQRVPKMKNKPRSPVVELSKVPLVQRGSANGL

[5] = target: T3, Ephrin type-A receptor 6 (Homo sapiens) (UniProt Q9UF33); assay: Selectivity interaction (KinomeScan (DiscoverX)) EUB0000655a EPHA6; conditions: at 10 µM
T3 sequence (whole entry): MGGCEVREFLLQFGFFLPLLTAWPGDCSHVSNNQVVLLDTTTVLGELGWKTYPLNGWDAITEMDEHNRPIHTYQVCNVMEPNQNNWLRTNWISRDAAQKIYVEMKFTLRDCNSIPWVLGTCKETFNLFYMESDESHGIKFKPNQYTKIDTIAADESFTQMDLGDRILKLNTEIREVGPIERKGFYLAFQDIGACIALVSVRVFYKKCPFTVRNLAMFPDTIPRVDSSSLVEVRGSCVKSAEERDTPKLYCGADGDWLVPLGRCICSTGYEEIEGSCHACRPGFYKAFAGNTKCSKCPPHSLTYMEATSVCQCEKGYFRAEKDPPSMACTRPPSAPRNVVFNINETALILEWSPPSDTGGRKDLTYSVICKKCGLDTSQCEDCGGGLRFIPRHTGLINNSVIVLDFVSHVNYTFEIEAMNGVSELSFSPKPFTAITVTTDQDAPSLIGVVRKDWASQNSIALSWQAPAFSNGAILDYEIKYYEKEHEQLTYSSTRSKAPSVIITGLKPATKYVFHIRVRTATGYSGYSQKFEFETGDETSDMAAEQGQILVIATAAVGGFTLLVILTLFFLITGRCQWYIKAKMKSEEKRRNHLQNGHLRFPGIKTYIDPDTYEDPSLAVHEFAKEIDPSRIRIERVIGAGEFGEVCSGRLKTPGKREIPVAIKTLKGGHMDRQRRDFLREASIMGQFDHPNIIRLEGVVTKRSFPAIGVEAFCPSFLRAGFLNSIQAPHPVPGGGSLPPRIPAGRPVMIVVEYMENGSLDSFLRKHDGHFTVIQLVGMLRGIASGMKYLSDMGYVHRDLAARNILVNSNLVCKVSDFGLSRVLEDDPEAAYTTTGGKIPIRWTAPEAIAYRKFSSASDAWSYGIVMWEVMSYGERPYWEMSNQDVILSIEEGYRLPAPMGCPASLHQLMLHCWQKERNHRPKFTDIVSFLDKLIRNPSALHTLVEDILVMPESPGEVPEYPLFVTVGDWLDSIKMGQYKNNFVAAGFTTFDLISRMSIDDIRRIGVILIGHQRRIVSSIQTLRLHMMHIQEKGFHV

Mitogen-activated protein kinase kinase kinase 1, sequence (Q13233 whole entry): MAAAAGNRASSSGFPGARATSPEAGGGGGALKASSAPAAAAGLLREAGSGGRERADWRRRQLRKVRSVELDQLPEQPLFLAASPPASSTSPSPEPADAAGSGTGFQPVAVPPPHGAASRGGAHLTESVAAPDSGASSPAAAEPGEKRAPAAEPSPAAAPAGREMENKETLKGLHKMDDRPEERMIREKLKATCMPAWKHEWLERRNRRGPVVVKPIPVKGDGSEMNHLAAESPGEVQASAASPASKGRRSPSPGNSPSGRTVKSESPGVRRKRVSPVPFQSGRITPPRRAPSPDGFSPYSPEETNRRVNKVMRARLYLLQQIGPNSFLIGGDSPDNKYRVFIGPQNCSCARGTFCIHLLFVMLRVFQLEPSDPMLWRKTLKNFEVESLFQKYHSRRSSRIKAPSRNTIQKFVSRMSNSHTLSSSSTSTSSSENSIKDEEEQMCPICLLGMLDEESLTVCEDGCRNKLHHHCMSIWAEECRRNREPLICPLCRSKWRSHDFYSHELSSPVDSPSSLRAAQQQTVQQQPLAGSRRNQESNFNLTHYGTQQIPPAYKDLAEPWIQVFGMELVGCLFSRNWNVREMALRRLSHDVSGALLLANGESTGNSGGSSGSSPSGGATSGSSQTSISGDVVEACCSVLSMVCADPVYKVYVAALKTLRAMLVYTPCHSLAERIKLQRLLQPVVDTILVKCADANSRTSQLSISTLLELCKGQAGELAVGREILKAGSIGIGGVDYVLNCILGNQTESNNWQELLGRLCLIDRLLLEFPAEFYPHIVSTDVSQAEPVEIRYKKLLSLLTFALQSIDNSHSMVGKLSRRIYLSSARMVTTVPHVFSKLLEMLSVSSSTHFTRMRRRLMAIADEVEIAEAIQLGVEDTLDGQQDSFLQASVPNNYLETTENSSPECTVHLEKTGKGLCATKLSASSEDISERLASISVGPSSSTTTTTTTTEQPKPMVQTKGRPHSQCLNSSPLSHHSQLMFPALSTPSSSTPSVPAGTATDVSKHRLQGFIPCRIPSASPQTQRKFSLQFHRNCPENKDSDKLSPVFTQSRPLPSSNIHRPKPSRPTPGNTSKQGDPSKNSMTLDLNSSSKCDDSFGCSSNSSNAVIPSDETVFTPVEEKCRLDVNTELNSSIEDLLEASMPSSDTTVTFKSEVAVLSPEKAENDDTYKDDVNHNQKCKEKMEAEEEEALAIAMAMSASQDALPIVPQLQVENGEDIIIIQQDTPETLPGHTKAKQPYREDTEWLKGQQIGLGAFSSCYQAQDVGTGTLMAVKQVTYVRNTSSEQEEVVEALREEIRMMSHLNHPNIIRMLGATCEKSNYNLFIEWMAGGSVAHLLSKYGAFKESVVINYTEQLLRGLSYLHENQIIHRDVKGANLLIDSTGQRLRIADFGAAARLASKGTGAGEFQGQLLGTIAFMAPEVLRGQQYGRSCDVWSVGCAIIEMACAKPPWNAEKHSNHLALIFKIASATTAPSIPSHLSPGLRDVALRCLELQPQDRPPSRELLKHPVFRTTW
Cyclin-dependent kinase 14 (Homo sapiens), sequence (O94921 whole entry): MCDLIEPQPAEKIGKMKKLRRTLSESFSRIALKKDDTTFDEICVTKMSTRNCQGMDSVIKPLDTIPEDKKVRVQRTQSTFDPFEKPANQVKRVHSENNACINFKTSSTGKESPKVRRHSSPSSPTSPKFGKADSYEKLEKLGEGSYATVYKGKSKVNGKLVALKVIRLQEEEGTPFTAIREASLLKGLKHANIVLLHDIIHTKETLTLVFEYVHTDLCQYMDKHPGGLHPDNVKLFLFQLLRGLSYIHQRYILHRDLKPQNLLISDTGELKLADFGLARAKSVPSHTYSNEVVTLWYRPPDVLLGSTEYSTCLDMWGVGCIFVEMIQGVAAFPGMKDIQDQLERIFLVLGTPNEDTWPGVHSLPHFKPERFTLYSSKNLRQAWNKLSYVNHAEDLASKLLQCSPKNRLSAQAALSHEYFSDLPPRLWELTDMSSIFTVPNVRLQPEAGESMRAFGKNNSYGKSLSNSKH

Compound: Cc1cc([C@@H](C)Nc2ccccc2C(=O)O)c2nc(N3CCOCC3)cc(=O)n2c1 [AZD-6482]
- % of control [1]: 100%
- % of control [2]: 100%

- % of inhibition ([3]; at 0.01 µM): 9.7%
- % of inhibition ([3]; at 0.04 µM): -2.5%
- % of inhibition ([3]; at 0.2 µM): -19.5%
- % of inhibition ([3]; at 1 µM): -13.4%
- % of inhibition ([3]; at 5 µM): 3.7%
Compound: CC[C@@H]1[C@H](F)C(=O)N[C@@H]1COc1nccc2cc(C(N)=O)c(OC)cc12 [ZIMLOVISERTIB]

- % of control [4]: -5.86%
Compound: Cn1cc(-n2cnc3c(NCc4nc5cc(Cl)c(Cl)cc5[nH]4)nc(N4CCOCC4)nc32)cn1

Compound: CN(C)CCOc1ccc(-c2nc(-c3ccncc3)c(-c3ccc4c(c3)CC/C4=N\O)[nH]2)cc1
- % of control [5]: 88%
